Laboratory results from patent publication US12398125B2, “Nitrogen-containing saturated heterocyclyl derivative” (Sumitomo Pharma Co., Ltd., priority 2022, dated 2025).

Columns and labels:
Assay type in all cases: cell-based
[1] = tested on: α-synuclein aggregate in dopamine neurospheroid prepared from human iPS cells with a mutation in PLA2G6 gene; test: Test 5: suppressing the accumulation of α-synuclein aggregate with dopamine neurospheroid; conditions: 120 h, DMSO = 100%, compound added day 21, measured day 26, PLA2G6 mutant; for activity at 0.1 µM: 100 nM, read-out: Amount of aggregate (%) 100 nM; for activity at 1 µM: 1000 nM, read-out: Amount of aggregate (%) 1000 nM
Description: Test 5: Evaluation of Suppressing the Accumulation of α-Synuclein Aggregate with Dopamine Neurospheroid Prepared from Human iPS Cells with a Mutation in PLA2G6 Gene
(§1) (1) Induction of Differentiation from Human iPS Cell to Neural Cell
(§2) Dopaminergic progenitor cells were induced from PLA2G6 gene mutant iPS cells with dopaminergic neuron differentiation kit (Thermo Fisher Scientific Inc., cat #A3147701). Dopamine neurospheroid was prepared from the induced dopaminergic progenitor cells by three-dimensional culture system, and preserved with BrainPhys Neuronal Medium (STEMCELL Technologies, cat #ST-05793) comprising NeuroCult SM1 Neuronal Supplement, N2 Supplement-A, 20 ng/mL BDNF, 20 ng/mL GDNF, 1 mM dibutyryl cAMP, and 200 nM ascorbic acid. Half of the culture medium was replaced every 3 or 4 days after the induction of differentiation.
The test compound was diluted with the culture medium so as to be twice the final concentration, and an equal volume of the twice-concentrated solution was added to each well when half of the culture medium was replaced on day 21 after induction of differentiation.
(§3) (2) Evaluation of the Amount of α-Synuclein Aggregate
(§4) From the dopamine neurospheroid 26 days after the induction of differentiation, proteins were extracted with a TBS solution containing 1% TritionX-100, and the extracted proteins were subjected to a protein analysis with Simple Western system (Protein Simple, Inc., cat #SM-W008) using an α-synuclein antibody (Thermo Fisher Scientific Inc., cat #AHB0261) to measure the amount of the α-synuclein aggregate.
(§5) The amount of the aggregate in the neurospheroid added with each test compound was measured. Assuming that the amount of the aggregate in the neurospheroid added with a DMSO solution is 100%, the amount of the aggregate in the test samples was evaluated.

[2] = tested on: α-synuclein aggregate in neurospheroid prepared from human iPS cells with a mutation in PLA2G6 gene; test: Test 2: suppressing the accumulation of α-synuclein aggregate with neurospheroid; conditions: 120 h, DMSO = 100%, compound added day 4, measured day 9 after induction of differentiation; for activity at 0.1 µM: 100 nM, read-out: Amount of aggregate (%) 100 nM; for activity at 1 µM: 1000 nM, read-out: Amount of aggregate (%) 1000 nM
Description: Test 2: Evaluation of Suppressing the Accumulation of α-Synuclein Aggregate with Neurospheroid Prepared from Human iPS Cells with a Mutation in PLA2G6 Gene
as §1
as §2, with “Neural stem” for “Dopaminergic progenitor”, “PSC Neuronal Induction Medium” for “dopaminergic neuron differentiation kit”, “#A1647801). Neurospheroid” for “#A3147701). Dopamine neurospheroid”, “neural stem” for “dopaminergic progenitor”, “on day 2 and day” for “every 3 or”, “4” for “4 days”
The test compound was diluted with the culture medium so as to be twice the final concentration, and an equal volume of the twice-concentrated solution was added to each well when half of the culture medium was replaced on day 4 after induction of differentiation.
as §3
as §4, with “the” for “the dopamine”, “neurospheroid 9” for “neurospheroid 26”
Assuming that the amount of the aggregate in the neurospheroid added with a DMSO solution is 100%, the amount of the aggregate in the neurospheroid added with each test compound was evaluated.

[3] = tested on: α-synuclein aggregate in neurospheroid prepared from human iPS cells with a mutation in PLA2G6 gene; test: Test 3: reducing the accumulation of α-synuclein aggregate with neurospheroid; conditions: 120 h, DMSO = 100%, compound added day 10, measured day 15 after induction of differentiation; for activity at 0.1 µM: 100 nM, read-out: Amount of aggregate (%) 100 nM; for activity at 1 µM: 1000 nM, read-out: Amount of aggregate (%) 1000 nM
Description: Test 3: Evaluation of Reducing the Accumulation of α-Synuclein Aggregate with Neurospheroid Prepared from Human iPS Cells with a Mutation in PLA2G6 Gene (1) Induction of Differentiation from Human iPS Cell to Neural Cell
as §2, with “Neural stem” for “Dopaminergic progenitor”, “PSC Neuronal Induction Medium” for “dopaminergic neuron differentiation kit”, “#A1647801). Neurospheroid” for “#A3147701). Dopamine neurospheroid”, “neural stem” for “dopaminergic progenitor”
The test compound was diluted with the culture medium so as to be twice the final concentration, and an equal volume of the twice-concentrated solution was added to each well when half of the culture medium was replaced on day 10 after induction of differentiation.
as §3
as §4, with “the” for “the dopamine”, “neurospheroid 15” for “neurospheroid 26”
as §5

[4] = tested on: α-synuclein aggregate in dopamine neurospheroid prepared from human iPS cells with a mutation in GBA1 gene; test: Test 11: reducing the accumulation of α-synuclein aggregate with dopamine neurospheroid; conditions: DMSO = 100%, compound added day 40, measured day 44, GBA1 mutant
Description: Test 11: Evaluation of Reducing the Accumulation of α-Synuclein Aggregate with Dopamine Neurospheroid Prepared from Human iPS Cells with a Mutation in GBA1 Gene
as §1
as §2, with “GBA1” for “PLA2G6”, “days.” for “days after the induction of differentiation.”
The test compound was diluted with the culture medium so as to be twice the final concentration, and an equal volume of the twice-concentrated solution was added to each well when half of the culture medium was replaced on day 40 after induction of differentiation.
as §3
as §4, with “neurospheroid 44” for “neurospheroid 26”
as §5

Compound	activity at 0.1 µM [1] [%]	activity at 1 µM [1] [%]	activity at 0.1 µM [2] [%]	activity at 1 µM [2] [%]	activity at 0.1 µM [3] [%]	activity at 1 µM [3] [%]	Amount of aggregate (%) 100 nM [4] [%]	Amount of aggregate (%) 1000 nM [4] [%]
CC1(C(=O)N2CCC(c3cnc(C(F)(F)F)c(F)c3)CC2)COC1 [Example 29, {4-[5-fluoro-6-(trifluoromethyl)pyridin-3-yl]piperidin-1-yl}(3-methyloxetan-3-yl)methanone]	9	8	24	14	42	60		
CC1(C(=O)N2CCC(c3cnccc3C(F)(F)F)CC2)CNC1 [Example 35]	27	38	28	28	16	19		
CC1(C(=O)N2CCC(c3ccc(C(F)(F)F)nc3)CC2)COC1 [Example 1, (3-Methyloxetan-3-yl){4-[6-(trifluoromethyl)pyridin-3-yl]piperidin-1-yl}methanone]	17	21	14	16	20	30	23	14
CC1(C(=O)N2CCC(c3ccc(C(F)(F)F)cn3)CC2)COC1 [Example 9]	18	23	8	50	10	20		
CCC1(C(=O)N2CCC(c3cnc(C(F)(F)F)cc3C)CC2)COC1 [Example 32]	3	0	18	5	29	96		
CN1CC(C)(C(=O)N2CCC(c3ccc(C(F)(F)F)cn3)CC2)C1 [Example 45]	17	8	9	4	46	76		
CN1CC(C)(C(=O)N2CCC(c3cccnc3C(F)(F)F)CC2)C1 [Example 42, (1,3-dimethylazetidin-3-yl){4-[2-(trifluoromethyl)pyridin-3-yl]piperidin-1-yl}methanone]	17	11	27	9	28	45	18	8
CCC1(C(=O)N2CCC(c3ccc(C(F)(F)F)nc3)CC2)COC1 [Example 5]	14	18	22	90	22	70		
CC1(C(=O)N2CCC(c3cncc(C(F)(F)F)c3)CC2)COC1 [Example 2, (3-methyloxetan-3-yl){4-[5-(trifluoromethyl)pyridin-3-yl]piperidin-1-yl}methanone]	16	7	9	1	20	17	21	20
CN1CC(C)(C(=O)N2CCCC(c3ccc(C(F)(F)F)nc3)C2)C1 (stereo not drawn) [Example 46]			38	25				
CC1(C(=O)N2CCC(c3ccc(C(F)(F)F)nn3)CC2)COC1 [Example 57]			88	50				
CN1CC(C)(C(=O)N2CCC(c3cncc(C(F)(F)F)c3)CC2)C1 [Example 44, (1,3-dimethylazetidin-3-yl){4-[5-(trifluoromethyl)pyridin-3-yl]piperidin-1-yl}methanone]	18	26	20	0	15	16	20	24
CC1(C(=O)N2CCC(c3ccncc3C(F)(F)F)CC2)COC1 [Example 53]			106	82				
CC1(C(=O)N2CCC(c3cncc(C(F)(F)F)c3)CC2)CNC1 [Example 36]			78	81				
CN1CCC(C(=O)N2CCC(c3ccc(C(F)(F)F)nc3)CC2)CC1 [Example 48]			16	21				
